Experiments:
[1] = system: HCT-116; assay: Antiproliferative activity against human HCT-116 cells assessed as inhibition of cell growth by MTT assay; assay type: functional, cell-based
[2] = system: MCF7; assay: Antiproliferative activity against human MCF7 cells assessed as inhibition of cell growth by MTT assay; assay type: functional, cell-based
[3] = system: A2780; assay: Antiproliferative activity against human A2780 cells assessed as inhibition of cell growth by MTT assay; assay type: functional, cell-based
[4] = Cytotoxicity against HUVEC cells assessed as inhibition of cell growth by MTT assay; settings: human
[5] = system: PANC-1; assay: Antiproliferative activity against human PANC-1 cells assessed as inhibition of cell growth by MTT assay; assay type: functional, cell-based
[6] = system: RS4-11; assay: Antiproliferative activity against human RS4-11 cells assessed as inhibition of cell growth by MTT assay; assay type: functional, cell-based
[7] = system: K562; assay: Antiproliferative activity against human K562 cells assessed as inhibition of cell growth by MTT assay; assay type: functional, cell-based
[8] = system: HL-60; assay: Antiproliferative activity against human HL-60 cells assessed as inhibition of cell growth by MTT assay; assay type: functional, cell-based
[9] = system: HCT-116; assay: Induction of cell cycle arrest in human HCT-116 assessed as increase in G2/M phase cells at 1 uM incubated for 48 hrs by flow cytometric analysis (reference value: 23.70%); assay type: functional
[10] = system: HCT-116; assay: Induction of cell cycle arrest in human HCT-116 assessed as S phase cells at 1 uM incubated for 48 hrs by flow cytometric analysis (reference value: 12.79%); assay type: functional
[11] = system: HCT-116; assay: Induction of apoptosis in human HCT-116 cells assessed as total apoptotic cells at 1 uM incubated for 24 hrs by Annexin V-FITC/PI staining based flow cytometry analysis (reference value: 6.823%); assay type: functional
[12] = system: HCT-116; assay: Induction of apoptosis in human HCT-116 cells assessed as early apoptotic cells at 1 uM incubated for 24 hrs by Annexin V-FITC/PI staining based flow cytometry analysis (reference value: 6.50%); assay type: functional
[13] = system: HCT-116; assay: Induction of apoptosis in human HCT-116 cells assessed as late apoptotic cells at 1 uM incubated for 24 hrs by Annexin V-FITC/PI staining based flow cytometry analysis (reference value: 0.323%); assay type: functional
[14] = system: HCT-116; assay: Induction of apoptosis in human HCT-116 cells assessed as necrotic cells at 1 uM incubated for 24 hrs by Annexin V-FITC/PI staining based flow cytometry analysis (reference value: 0.00%); assay type: functional
[15] = system: HCT-116; assay: Induction of apoptosis in human HCT-116 cells assessed as viable cells at 1 uM incubated for 24 hrs by Annexin V-FITC/PI staining based flow cytometry analysis (reference value: 93.2%); assay type: functional
[16] = system: HCT-116; assay: Induction of cell cycle arrest in human HCT-116 assessed as decrease in G0/G1 phase cells at 1 uM incubated for 48 hrs by flow cytometric analysis (reference value: 63.51%); assay type: functional; set-up: scale not given: the % may be the effect or the level left

Nc1ccccc1NC(=O)CCCCCNc1nc2ccccc2nc1-c1nc2ccccc2o1
IC50 [1]: 9.94 µM
IC50 [2]: 9.36 µM
IC50 [3]: 12.6 µM
IC50 [4]: 15.3 µM
IC50 [5]: 11.2 µM

O=C(CCCCCCCNc1nc2ccccc2nc1-c1nc2ccccc2o1)NO
IC50 [6]: 0.89 µM
IC50 [7]: 0.89 µM
IC50 [1]: 3.04 µM
IC50 [2]: 1.52 µM
IC50 [8]: 0.89 µM
IC50 [3]: 3.27 µM
IC50 [4]: 17.4 µM
IC50 [5]: 2.87 µM

O=C(CCCNc1nc2ccccc2nc1-c1nc2ccccc2o1)NO
IC50 [1]: 4.59 µM
IC50 [2]: 4.98 µM
IC50 [3]: 6.29 µM
IC50 [4]: 24 µM
IC50 [5]: 3.68 µM

O=C(CCCCCCC(=O)Nc1ccccc1)NO [VORINOSTAT]
Activity [9]: 30.87%
Activity [10]: 11.02%
Activity [11]: 41.49%
Activity [12]: 34.9%
Activity [13]: 6.59%
Activity [14]: 0.146%
Activity [15]: 58.4%
Activity [16]: 58.11%

O=C(CCCCCNc1nc2ccccc2nc1-c1nc2ccccc2o1)NO
IC50 [1]: 2.44 µM
IC50 [2]: 3.69 µM
IC50 [3]: 4.07 µM
IC50 [4]: 16.4 µM
IC50 [5]: 1.92 µM

Nc1ccccc1NC(=O)CCCNc1nc2ccccc2nc1-c1nc2ccccc2o1
IC50 [1]: 17.2 µM
IC50 [2]: 33.5 µM
IC50 [3]: 23.9 µM
IC50 [4]: 27.2 µM
IC50 [5]: 21.6 µM

Nc1ccccc1NC(=O)CCCCCCNc1nc2ccccc2nc1-c1nc2ccccc2o1
IC50 [1]: 6.51 µM
IC50 [2]: 7.33 µM
IC50 [3]: 17.9 µM
IC50 [4]: 16.7 µM
IC50 [5]: 11 µM

Nc1ccccc1NC(=O)CCCCCCCNc1nc2ccccc2nc1-c1nc2ccccc2o1
IC50 [1]: 9.08 µM
IC50 [2]: 12.5 µM
IC50 [3]: 7.13 µM
IC50 [4]: 21.5 µM
IC50 [5]: 10.5 µM
